Several values for one entry are separate records, joined by “and”; a condition that tells them apart may be missing. Equal values may be shown once.
System: recurrent glioblastoma (GBM)
Assay: Clinical trial: monthly ultrasound BBB opening followed by carboplatin in recurrent glioblastoma patients
Excerpt: Patients experiencing recurrence (first, second or third) of a histologically proven de novo glioblastoma (GBM), previously treated with at least the first line standard of care were included (i.e. radiation with concurrent and adjuvant temozolomide). Patients had to have a growing contrast-enhancing tumor of less than 35 mm in diameter and be eligible for carboplatin-based chemotherapy.
The trial was designed as a dose escalation study (Simon et al. 1997) in which the US pressure was increased throughout the study starting at 0.5 and increasing to 1.1 MPa through 5 different “dose” levels (0.50, 0.65, 0.80, 0.95, and 1.1 MPa).
A minimum of three patients were included at each dose level. If none of the patients experienced a dose-limiting toxicity (DLT), the next dose level was opened. If one patient experienced a DLT, three additional patients were enrolled at that dose level.
Patients received US activation and BBB disruption every four weeks. The first treatment was performed at the initial “dose” level for the inclusion group, the second treatment at the next highest dose level, etc. Patients were treated monthly for up to a maximum of six treatments or until there was evidence of tumor progression.
All patients were assessed monthly using MR imaging, blood sampling, and clinical neurological evaluation. Two days prior to each planned ultrasound treatment, tumor status was evaluated on MRI according to the Response Assessment in Neuro-Oncology (RANO) Criteria (Wen et al. 2010). Progression-free survival (PFS) and overall survival (OS) were also assessed. Patients left the study if tumor progression was identified, which defined progression as an increase in tumor size of more than 25% or an increase in T2/FLAIR or as a neurological status degradation (Wen et al. 2010).
In the absence of tumor progression and significant toxicity, the BBB opening session followed by carboplatin injection was scheduled two days after. […]
Carboplatin dose (AUC, area under the curve) administration was calculated based on the Calvert formula taking into account renal function. […]

[1] = per patient, recurrent GBM, monthly US (0.5-1.1 MPa) + SonoVue BBB opening followed by i.v. carboplatin AUC 4-6

`N.N.O=C([O-])C1(C(=O)[O-])CCC1.[Pt+2]` [Carboplatin] was tested, and the cerebral carboplatin-related toxicity (GBM patients, carboplatin perfusion started within 60 minutes after US BBB opening) was “No cerebral carboplatin-related toxicity was observed”, the Duration on-study [1] was 3 months (4×) and 2 months (6×) and 2.5 months and >5 months and >4 months and 4 months and still on study and the “Tumor Progression (MRI, FLAIR/ T1Gd) in the acoustic” value [1] was “Yes (5×) and No (9×) and slight”.

From patent publication US10981021B2, “Method for transiently disrupting a region of the blood-brain barrier of a human” (Carthera, priority 2016, dated 2021)
